Consider two compounds from patent US20030165446A1, “Divalent manganese salts for reducing odour resulting from bacterial decomposition of human perspiration” (priority 2003, published 2003).

The test system of data set [1] is natural sweat (human axillary sweat). The note with it: 1 mg of active material per ml of sweat, i.e. 0.1%, incubated 18 h then 24 h at 37° C., with respect to control sweat without deodorant agent; for Mean % of reduction in the odor annoyance (mean over 18 h and 24 h): hedonic grade. How it is done: A test of inhibition of the evolution of odors was carried out on natural sweat.
The principle of this test consists in adding the deodorant agent to fresh sweat and then in carrying out an olfactory evaluation by a jury of experts after incubating for 18 hours and then 24 hours at 37° C.
Thus, the axillary sweat was taken from several human models in a sauna and was combined to produce a sample of sweat. In order to obtain the characteristic nauseating odor of sweat, this sample of sweat was incubated […]. […] The active substance was then introduced into each of the flasks to be tested.
Per 1 mg of active material per ml of sweat, i.e. 0.1%: […]

In a further data set the test system is Corynebacterium xerosis. The format is cell-based. The note with it: dilutions in agar medium. How it is done: (§1) The microbiostatic activity of MnCl2 was determined in comparison with triclosan (deodorant active principle of the prior art) by the method of dilutions in agar medium.
(§2) One hundred μl of the ethanolic solution were added to 0.9 ml of agar culture heated beyond the melting point to 45° C. (medium chosen as a function of the nutrient requirements of the strain studied). After stirring with a Vortex device, successive dilutions in geometric progression in a ratio of 2 of the solution obtained were carried out using agar culture medium heated beyond the melting point to 45° C. One ml of each dilution was introduced into the wells of a microplate (Flacon [sic], 24 wells). Four μl of microbial suspension were deposited at the surface of the agar medium.
(§3) Two control wells were also prepared: 100 μl H2O+0.9 ml of culture medium (growth control), 100 μl ethanol+0.9 ml of culture medium.
(§4) After incubating under conditions (temperature, atmosphere and duration) dependent on the strain studied, the Minimum Inhibitory Concentration (MIC) is given by the lowest concentration of product which inhibits microbial growth.
(§5) Results: expressed in % w/v

For data set [2], the system named is Staphylococcus epidermidis. The format is cell-based. The note with it: dilutions in agar medium. How it is done: as §1, §2, §3, §4, §5
For data set [3] the following is noted: background statement; cited from earlier work.

Turning to manganese chloride [MnCl2], in data set [1], the “Mean % of reduction in the strength of the odor (mean over 18 h and 24 h)” value is recorded as −43%; the “Mean % of reduction in the odor annoyance (mean over 18 h and 24 h)” value was −31%. For the same compound, in the data set on Corynebacterium xerosis, the “Minimum Inhibitory Concentration (MIC)” value was found to be 0.23 % w/v. The “Minimum Inhibitory Concentration (MIC)” value in data set [2] amounted to 0.23 % w/v.

Take `Oc1cc(Cl)ccc1Oc1ccc(Cl)cc1Cl` [Triclosan, 2,4,4′-trichloro-2′-hydroxydiphenyl ether]: the “Mean % of reduction in the strength of the odor (mean over 18 h and 24 h)” value in data set [1] is recorded as −39%. In addition, in data set [1], the “Mean % of reduction in the odor annoyance (mean over 18 h and 24 h)” value is −27%. The entries for the “Minimum Inhibitory Concentration (MIC)” value (in the data set on Corynebacterium xerosis; in data set [2]) were 4 × 10^−6 % w/v and 3 × 10^−8 % w/v, respectively. Besides, the solubility in water result in data set [3] was “insoluble”.
